What was measured:
[1] = test system: osteoarthritis-induced New Zealand white rabbits; assay: Nitric oxide levels in synovial fluids (Griess reaction); type: in vivo
Description: To prepare an osteoarthritis animal model, New Zealand white rabbits underwent anterior cruciate ligament transection (ACLT) in joints of their two hind legs. After three days, the rabbits were forced to sustain movement for four weeks in a space of 5×5 m^3 to induce substantial osteoarthritis. […] The following Examples 3 to 10 were all performed using joints of the osteoarthritis-induced New Zealand white rabbits prepared as in this Example 2.
A synovial fluid and a Griess reagent were mixed at a ratio of 1:1 (100 μl: 100 μl) and allowed to stand at room temperature for 10 min, and absorbance was measured at 540 nm using a spectrophotometer (Power Wave X340, Bio-Tek). The Griess reagent was prepared in a final volume of 10 ml using 0.1 g of sulfanilamide (S9251, Sigma), 0.5 ml of phosphoric acid (P6560, Sigma) and 0.01 g of N-naphthyl-diamine-H-chloride (102397, ICN). A quantitative curve for nitrite was obtained using sodium nitrite (S2252, Sigma).

IκBα = assay: Western blotting of IκBα expression in LPS-treated RAW 264.7; type: cell-based, mice; conditions: normal = 100%, LPS (two hours) 18.56%, 10 μM of apigenin
Method: A macrophage cell line derived from mice, RAW 264.7 (KCLB 40071), was purchased from the Korean Cell Line Bank. RAW 264.7 cells were seeded in a density of 3×10^6 cells onto 60-mm culture dishes containing DMEM (Dulbecco's Modified Eagle Medium, 12800-017, Gibco) supplemented with 10% FBS (fetal bovine serum, 26140-079, Gibco), 100 U/ml of penicillin and 100 μg/ml streptomycin (15140-122, Gibco), and cultured at 37° C. under 5% CO2 and humidity for 24 hrs. To induce NO production, RAW 264.7 cells were treated with 500 ng/ml of an E. coli cell wall component, lipopolysaccharide (LPS, […], Sigma). […] Herein, LPS was dissolved in distilled water, and apigenin was dissolved in DMSO. Then, the culture medium and a Griess reagent were mixed at a ratio of 1:1 (100 μl: 100 μl) and allowed to stand at room temperature for 10 min. Thereafter, absorbance was measured at 540 nm using a spectrophotometer (Power Wave X340, Bio-Tek). RAW 264.7 cells were treated under the same conditions as in Example 12. […] Herein, for IκBα expression, the cells were treated with LSP for only two hours. […] After protein concentrations in cell lysates were measured, […] protein samples were separated on an 8-16% SDS (sodium dodecyl sulfate) polyacrylamide gel (EC60452, NOVEX). […]

COX-2 = assay: Western blotting of COX-2 expression in LPS-treated RAW 264.7; type: cell-based, mice; conditions: LPS treatment = 100%, upon apigenin treatment
Method: A macrophage cell line derived from mice, RAW 264.7 (KCLB 40071), was purchased from the Korean Cell Line Bank. RAW 264.7 cells were seeded in a density of 3×10^6 cells onto 60-mm culture dishes containing DMEM (Dulbecco's Modified Eagle Medium, 12800-017, Gibco) supplemented with 10% FBS (fetal bovine serum, 26140-079, Gibco), 100 U/ml of penicillin and 100 μg/ml streptomycin (15140-122, Gibco), and cultured at 37° C. under 5% CO2 and humidity for 24 hrs. To induce NO production, RAW 264.7 cells were treated with 500 ng/ml of an E. coli cell wall component, lipopolysaccharide (LPS, L2654, Sigma). […] Herein, LPS was dissolved in distilled water, and apigenin was dissolved in DMSO. Then, the culture medium and a Griess reagent were mixed at a ratio of 1:1 (100 μl: 100 μl) and allowed to stand at room temperature for 10 min. Thereafter, absorbance was measured at 540 nm using a spectrophotometer (Power Wave X340, Bio-Tek).
RAW 264.7 cells were treated under the same conditions as in Example 12. […] Herein, for IκBα expression, the cells were treated with LSP for only two hours. […] After protein concentrations in cell lysates were measured, […] protein samples were separated on an 8-16% SDS (sodium dodecyl sulfate) polyacrylamide gel (EC60452, NOVEX). […]

O=c1cc(-c2ccc(O)cc2)oc2cc(O)cc(O)c12 [apigenin, 4′,5,7-trihydroxyflavone]
NO levels in synovial fluids ([1]; apigenin-treated right leg (+), four weeks after drug injection): about 6.01 μM
NO levels in synovial fluids ([1]; apigenin-treated right leg (+), four weeks after drug injection, listed as Apigenin): 6.01 ± 0.88 µM
NO levels in synovial fluids ([1]; apigenin-treated right leg (+), two weeks after drug injection): 7.53 ± 4.66 µM
NO levels in synovial fluids ([1]; non-treated left leg (−) of apigenin treatment group, four weeks after drug injection): 5.5 ± 4.59 µM
NO levels in synovial fluids ([1]; non-treated left leg (−) of apigenin treatment group, two weeks after drug injection): 0.65 ± 0.06 µM
IκBα expression level (IκBα): 75.82%
COX-2 expression level (COX-2): 0%

From patent US20070154540A1 (KMSI CO., LTD., priority 2003, published 2007)
